Consider seven molecules from patent US10118894B2, “Isoindolinone derivatives useful as antiviral agents” (priority 2014, dated 2018).

In this assay the test system is HIV. The assay is described as follows: MT4 Assay (anti-HIV activity). The format is cell-based. The following applies: Human immunodeficiency virus 1, MT4, 96 h, read-out: HIV MT4 Assay IC50. How it is done:
Antiviral HIV activity and cytotoxicity values for compounds of the invention from Table 1 were measured in parallel in the HTLV-1 transformed cell line MT-4 based on the method previously described (Hazen et al., 2007, In vitro antiviral activity of the novel, tyrosyl-based human immunodeficiency virus (HIV) type 1 protease inhibitor brecanavir (GW640385) in combination with other antiretrovirals and against a panel of protease inhibitor-resistant HIV (Hazen et al., “In vitro antiviral activity of the novel, tyrosyl-based human immunodeficiency virus (HIV) type 1 protease inhibitor brecanavir (GW640385) in combination with other antiretrovirals and against a panel of protease inhibitor-resistant HIV”, Antimicrob. Agents Chemother. 2007, 51: 3147-3154; and Pauwels et al., “Sensitive and rapid assay on MT-4 cells for the detection of antiviral compounds against the AIDS virus”, J. of Virological Methods 1987, 16: 171-185).
Luciferase activity was measured 96 hours later by adding a cell titer glo (Promega, Madison, Wis.). Percent inhibition of cell protection data was plotted relative to no compound control. Under the same condition, cytotoxicity of the compounds was determined using cell titer Glo™ (Promega, Madison, Wis.). IC50s were determined from a 10 point dose response curve using 3-4-fold serial dilution for each compound, which spans a concentration range >1000 fold.
These values are plotted against the molar compound concentrations using the standard four parameter logistic equation: y=((Vmax*x^n)/(K^n+x^n))+Y2
The IC50 is the concentration that inhibits the measured activity by half. On to `Cc1c(-c2c(C)c3c(c(C)c2[C@H](OC(C)(C)C)C(=O)O)C(=O)N(Cc2ccccc2)C3)cc(F)c2c1CCCO2` (atropisomer, axis not shown; (M)) [Example 5, (S)-2-((M)-2-Benzyl-6-(8-fluoro-5-methylchroman-6-yl)-4,7-dimethyl-3-oxoisoindolin-5-yl)-2-(tert-butoxy)acetic acid], for which the concentration for half-maximal inhibition (IC50) amounted to 5 nM.
Then `Cc1c(-c2c(C)c3c(c(C)c2[C@H](OC(C)(C)C)C(=O)O)C(=O)N(Cc2ccccc2)C3)cc(F)c2c1NCCO2` (atropisomer, axis not shown; (M)) [Example 7, (S)-2-((M)-2-benzyl-6-(8-fluoro-5-methyl-3,4-dihydro-2H-benzo[b][1,4]oxazin-6-yl)-4,7-dimethyl-3-oxoisoindolin-5-yl)-2-(tert-butoxy)acetic acid], with 14 nM.
To `Cc1ccc(-c2c(C)c3c(c(C)c2C(OC(C)(C)C)C(=O)O)C(=O)N(Cc2ccccc2)C3)cc1` (stereo not shown) [Example 1, 2-(2-Benzyl-4,7-dimethyl-3-oxo-6-(p-tolyl)isoindolin-5-yl)-2-(tert-butoxy)acetic acid] belongs 25 nM.
To `Cc1ccc(-c2c(C)c3c(c(C)c2[C@H](OC(C)(C)C)C(=O)O)C(=O)N(Cc2ccccc2)C3)cc1` [Example 2] belongs 42 nM; to `Cc1c2c(c(C)c(C(OC(C)(C)C)C(=O)O)c1-c1ccc(Cl)cc1)C(=O)N(Cc1ccccc1)C2` (stereo not shown) [Example 3, 2-(2-benzyl-6-(4-chlorophenyl)-4,7-dimethyl-3-oxoisoindolin-5-yl)-2-(tert-butoxy)acetic acid], 86 nM; to `Cc1c2c(c(C)c(C(OC(C)(C)C)C(=O)O)c1-c1ccc3c(c1)CCCO3)C(=O)N(Cc1ccccc1)C2` (stereo not shown) [Example 4, 2-(2-benzyl-6-(chroman-6-yl)-4,7-dimethyl-3-oxoisoindolin-5-yl)-2-(tert-butoxy)acetic acid], 52 nM.
Take `Cc1c2c(c(C)c([C@H](OC(C)(C)C)C(=O)O)c1C1=CCC(C)(C)CC1)C(=O)N(Cc1ccccc1)C2` [Example 6, (S)-2-(2-benzyl-6-(4,4-dimethylcyclohex-1-en-1-yl)-4,7-dimethyl-3-oxoisoindolin-5-yl)-2-(tert-butoxy)acetic acid]: the IC50 amounted to 36 nM.
